According to patent US8288142B2, “Hyaluronidase and method of use thereof” (priority 2007, dated 2012):
Where two headings read alike, the source gives them in different places.

Tests used:
microbial hyaluronidase = assay type: biochemical, Streptomyces actinocidus; details: for effect on hyaluronidase / inhibition of hyaluronidase activity: 10^−2 M; for inhibition of activity of microbial hyaluronidase: 10^−3 M; for effect on activity of microbial hyaluronidase: 10^−3-10^−4 M
[1] = test system: hyaluronidase derived from Stm. Hyalurolyticus; details: 10^−3-10^−4 M; Ohya 1970; cited from earlier work

| Structure (SMILES) | Hyaluronidase activity (%) (microbial hyaluronidase; reagent or salt 10^−2 M) | Hyaluronidase activity (%) (microbial hyaluronidase; reagent or salt 10^−3 M) | Hyaluronidase activity (%) (microbial hyaluronidase; reagent or salt 10^−4 M) | effect on hyaluronidase (microbial hyaluronidase) | inhibition of hyaluronidase activity (microbial hyaluronidase) [%] | inhibition of activity of microbial hyaluronidase (microbial hyaluronidase) [%] | effect on hyaluronidase derived from Stm. Hyalurolyticus [1] | effect on activity of microbial hyaluronidase (microbial hyaluronidase) | Hyaluronidase activity (%) (microbial hyaluronidase) |
| --- | --- | --- | --- | --- | --- | --- | --- | --- | --- |
| II [I2] | 0 | 12 | – | – | – | – | – | – | – |
| [Cl-].[K+] [KCl] | 100 | 100 | 100 | – | – | – | – | – | – |
| OCCS [beta-Mercaptoethanol] | 0 | 65 | 100 | completely inhibited | – | – | – | – | – |
| [Cl][Fe]([Cl])[Cl] [FeCl3] | 35 | 85 | 100 | – | 65 | 25 | – | – | – |
| [N-]=[N+]=[N-].[Na+] [Na3N] | 100 | 100 | 100 | – | – | – | – | – | – |
| [Cl][Mn][Cl] [MnCl2] | 100 | 100 | 100 | – | – | – | inhibit | did not affect | – |
| [Cl-].[Cl-].[Co+2] [CoCl2] | – | – | – | – | – | – | – | – | 100 |
| O=[N+]([O-])[O-].[Ag+] [AgNO3] | 100 | 100 | 100 | – | – | – | – | – | – |
| O=S(=O)([O-])[O-].[Cu+2] [CuSO4] | 44 | 85 | 100 | – | 56 | 25 | – | – | – |
| [Ca+2].[Cl-].[Cl-] [CaCl2] | 100 | 100 | 100 | – | – | – | – | – | – |
| [Hg+2] [Hg^2+] | – | – | – | – | – | – | inhibit | – | – |
| O=C(O)c1cc[c]([Hg][Cl])cc1 [para-Chloromercury-benzoate] | 80 | 100 | 100 | partially inhibited | – | – | inhibit | did not affect | – |
| O=C(O)CN(CCN(CC(=O)O)CC(=O)O)CC(=O)O [EDTA] | 95 | 100 | 100 | – | – | – | – | – | – |
| [Cl-].[Na+] [NaCl] | 100 | 100 | 100 | – | – | – | – | – | – |
| O=S(=O)([O-])[O-].[Zn+2] [ZnSO4] | 100 | 100 | 100 | – | – | – | – | – | – |
| O=S(=O)([O-])[O-].[Li+].[Li+] [LiSO4] | 100 | 100 | 100 | – | – | – | – | – | – |
| O=S(=O)([O-])[O-].[Fe+2] [FeSO4] | 100 | 100 | 100 | – | – | – | – | – | – |
